Data as given in the supplement of paper PMC11208160.

Assay: recombinant UMI read abundance after kanamycin selection (control-corrected) (log10(CPM+1)); higher = more efficient recombination; extreme values may be limits of the assay; sequences stand for … in AGTGCAGAGAAAATCGGCCAGTTTTCTCTGCCTGCAGTCCGCATGCCGTGGGACCCCTTGGGTTCTAACCTGTTGCCTAGATTTATGCAGCGGACTGCCTTTCTCCCAAAGTGATAAACCGG…AGGTTGGTTTCACT; site = the 11-nt donor
Method in brief: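 Sequencing read counts were converted to CPM, averaged over two replicates and scaled by control-derived factors. Results are given as log10(CPM+1). The reads covered the donor–target junction of recombinant UMIs from a pooled Escherichia coli screen of donor and donor-binding-loop pairs for the IS621 bridge recombinase.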
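Further: IS621 bridge recombinase in Escherichia coli cells against a fixed T5 target plasmid.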

| Sequence | recombinant UMI read abundance (log10) |
| --- | --- |
| TAGTTGGCATGGACCGGTTTTCCCGGTAATCCGTATTTGGG (site TAGTTGGCTCC) | 0.0252 |
| TATAAGCCATGGACCGGTTTTCCCGGTAATCCGTATTTGCC (site TATAAGCCTGG) | 0 |
| TATAGCGCATGGACCGGTTTTCCCGGTAATCCGTATTTGGC (site TATAGCGCTGC) | 2.48 |
| TATAGGCCATGGACCGGTTTTCCCGGTAATCCGTATTTGAG (site TATAGGCCTCT) | 0.0191 |
| TATCATTCATGGACCGGTTTTCCCGGTAATCCGTATTTGGG (site TATCATTCTCC) | 0.00534 |
| TATCCGTCATGGACCGGTTTTCCCGGTAATCCGTATTTGAA (site TATCCGTCTTT) | 0.0803 |
| TATGAGTCATGGACCGGTTTTCCCGGTAATCCGTATTTGCT (site TATGAGTCTAG) | 2.74 |
| TATGCAACATGGACCGGTTTTCCCGGTAATCCGTATTTGTT (site TATGCAACTAA) | 0.0144 |
| TATGCACCATGGACCGGTTTTCCCGGTAATCCGTATTTGGT (site TATGCACCTAC) | 0.0323 |
| TATGTGTCATGGACCGGTTTTCCCGGTAATCCGTATTTGAC (site AATGTGTCTGT) | 0 |
| TATGTGTCATGGACCGGTTTTCCCGGTAATCCGTATTTGAC (site CATGTGTCTGT) | 0 |
| TATGTGTCATGGACCGGTTTTCCCGGTAATCCGTATTTGAC (site GATGTGTCTGT) | 0 |
| TATGTGTCATGGACCGGTTTTCCCGGTAATCCGTATTTGAC (site TATGTGTCTGT) | 0.884 |
| TATTACACATGGACCGGTTTTCCCGGTAATCCGTATTTGCC (site TATTACACTGG) | 2.37 |
| TATTAGACATGGACCGGTTTTCCCGGTAATCCGTATTTGCG (site TATTAGACTCG) | 1.03 |
| TATTGGGCATGGACCGGTTTTCCCGGTAATCCGTATTTGTG (site TATTAGGCTCA) | 0.0242 |
| TATTGGGCATGGACCGGTTTTCCCGGTAATCCGTATTTGTG (site TATTCGGCTCA) | 0.00589 |
| TATTGGGCATGGACCGGTTTTCCCGGTAATCCGTATTTGTG (site TATTGGGCTCA) | 0.226 |
| TATTGGGCATGGACCGGTTTTCCCGGTAATCCGTATTTGTG (site TATTTGGCTCA) | 0.0234 |
| TATTGTGCATGGACCGGTTTTCCCGGTAATCCGTATTTGGT (site TATTGTGCTAC) | 0.401 |
| TATTTGTCATGGACCGGTTTTCCCGGTAATCCGTATTTGTG (site TATTTGACTCA) | 0.0169 |
| TATTTGTCATGGACCGGTTTTCCCGGTAATCCGTATTTGTG (site TATTTGCCTCA) | 0.0214 |
| TATTTGTCATGGACCGGTTTTCCCGGTAATCCGTATTTGTG (site TATTTGGCTCA) | 0.0347 |

| Sequence | recombinant UMI read abundance (log10) |
| --- | --- |
| TATTTGTCATGGACCGGTTTTCCCGGTAATCCGTATTTGTG (site TATTTGTCTCA) | 0.515 |
| TATTTTGCATGGACCGGTTTTCCCGGTAATCCGTATTTGTG (site TATTTAGCTCA) | 0.00468 |
| TATTTTGCATGGACCGGTTTTCCCGGTAATCCGTATTTGTG (site TATTTCGCTCA) | 0.0112 |
| TATTTTGCATGGACCGGTTTTCCCGGTAATCCGTATTTGTG (site TATTTGGCTCA) | 0 |
| TATTTTGCATGGACCGGTTTTCCCGGTAATCCGTATTTGTG (site TATTTTGCTCA) | 0.00898 |
| TCAATTTCATGGACCGGTTTTCCCGGTAATCCGTATTTGGC (site TCAATTTCTGC) | 0 |
| TCACACTCATGGACCGGTTTTCCCGGTAATCCGTATTTGAT (site TCACACTCTAT) | 2.38 |
| TCACAGCCATGGACCGGTTTTCCCGGTAATCCGTATTTGCA (site TCACAGCCTTG) | 0.816 |
| TCACCTGCATGGACCGGTTTTCCCGGTAATCCGTATTTGCG (site TCACCTGCTCG) | 0.016 |
| TCACCTGCATGGACCGGTTTTCCCGGTAATCCGTATTTGTT (site TCACCTGCTAA) | 0.063 |
| TCACGCACATGGACCGGTTTTCCCGGTAATCCGTATTTGCT (site TCACGCACTAG) | 1.97 |
| TCACGTACATGGACCGGTTTTCCCGGTAATCCGTATTTGAT (site TCACGTACTAT) | 0.589 |
| TCACGTCCATGGACCGGTTTTCCCGGTAATCCGTATTTGGC (site TCACGTCCTGC) | 0 |
| TCAGACTCATGGACCGGTTTTCCCGGTAATCCGTATTTGCA (site TCAAACTCTTG) | 0.771 |
| TCAGACTCATGGACCGGTTTTCCCGGTAATCCGTATTTGCA (site TCACACTCTTG) | 1.19 |
| TCAGACTCATGGACCGGTTTTCCCGGTAATCCGTATTTGCA (site TCAGACTCTTG) | 2.95 |
| TCAGACTCATGGACCGGTTTTCCCGGTAATCCGTATTTGCA (site TCATACTCTTG) | 0.807 |
| TCAGATACATGGACCGGTTTTCCCGGTAATCCGTATTTGGC (site TCAGATACTGC) | 0 |
| TCAGCATCATGGACCGGTTTTCCCGGTAATCCGTATTTGCA (site ACAGTATCTTG) | 0.8 |
| TCAGCATCATGGACCGGTTTTCCCGGTAATCCGTATTTGCA (site TCAGCATCTTG) | 0.224 |
| TCAGCCTCATGGACCGGTTTTCCCGGTAATCCGTATTTGAT (site TCAGCCTCTAT) | 1.36 |
| TCAGCGACATGGACCGGTTTTCCCGGTAATCCGTATTTGCG (site TCAGAGACTCG) | 0.00361 |
| TCAGCGACATGGACCGGTTTTCCCGGTAATCCGTATTTGCG (site TCAGCGACTCG) | 1.37 |

| Sequence | recombinant UMI read abundance (log10) |
| --- | --- |
| TCAGCGACATGGACCGGTTTTCCCGGTAATCCGTATTTGCG (site TCAGGGACTCG) | 0.0187 |
| TCAGCGACATGGACCGGTTTTCCCGGTAATCCGTATTTGCG (site TCAGTGACTCG) | 0.00864 |
| TCAGCTGCATGGACCGGTTTTCCCGGTAATCCGTATTTGTG (site TAAGCTGCTCA) | 0.0147 |
| TCAGCTGCATGGACCGGTTTTCCCGGTAATCCGTATTTGTG (site TCAGCTGCTCA) | 0.637 |
| TCAGCTGCATGGACCGGTTTTCCCGGTAATCCGTATTTGTG (site TGAGCTGCTCA) | 0.00568 |
| TCAGCTGCATGGACCGGTTTTCCCGGTAATCCGTATTTGTG (site TTAGCTGCTCA) | 0.0047 |
| TCAGGCACATGGACCGGTTTTCCCGGTAATCCGTATTTGGC (site TCAGGCACTGC) | 0.89 |
| TCAGGGACATGGACCGGTTTTCCCGGTAATCCGTATTTGCG (site TCAGAGACTCG) | 0.74 |
| TCAGGGACATGGACCGGTTTTCCCGGTAATCCGTATTTGCG (site TCAGCGACTCG) | 0.0114 |
| TCAGGGACATGGACCGGTTTTCCCGGTAATCCGTATTTGCG (site TCAGGGACTCG) | 1.03 |
| TCAGGGACATGGACCGGTTTTCCCGGTAATCCGTATTTGCG (site TCAGTGACTCG) | 0.0229 |
| TCAGTAACATGGACCGGTTTTCCCGGTAATCCGTATTTGTA (site TCAGTAACTTA) | 1.71 |
| TCAGTAGCATGGACCGGTTTTCCCGGTAATCCGTATTTGGC (site TCAGTAGCTGC) | 1.54 |
| TCAGTTCCATGGACCGGTTTTCCCGGTAATCCGTATTTGAA (site TCAGTTCCTTT) | 0.398 |
| TCAGTTTCATGGACCGGTTTTCCCGGTAATCCGTATTTGCA (site ACAGTATCTTG) | 0.0288 |
| TCAGTTTCATGGACCGGTTTTCCCGGTAATCCGTATTTGCA (site TCAGTTTCTTG) | 1.14 |
| TCATACACATGGACCGGTTTTCCCGGTAATCCGTATTTGCA (site TCATACACTTG) | 2.45 |
| TCATACACATGGACCGGTTTTCCCGGTAATCCGTATTTGCA (site TCATACCCTTG) | 0.302 |
| TCATACACATGGACCGGTTTTCCCGGTAATCCGTATTTGCA (site TCATACGCTTG) | 1.36 |
| TCATACACATGGACCGGTTTTCCCGGTAATCCGTATTTGCA (site TCATACTCTTG) | 1.5 |
| TCATACCCATGGACCGGTTTTCCCGGTAATCCGTATTTGTG (site TCATACCCTCA) | 0 |
| TCATACTCATGGACCGGTTTTCCCGGTAATCCGTATTTGGA (site TCATACTCTTA) | 0.26 |
